ChEMBL document CHEMBL3098092, “Fluorescent probes of the isoxazole-dihydropyridine scaffold: MDR-1 binding and homology model” (Bioorg Med Chem Lett, 2014)

Key:
[1] = Drug uptake in human SH-SY5Y cells at 1 uM after 90 mins by confocal fluorescence microscopy analysis; type: ADME, cell-based; settings: 1.5 h
[2] = target: MDR-1 (P-glycoprotein, ABCB1) (Homo sapiens, UniProt P08183); assay: Inhibition of MDR-1 (unknown origin) expressed in human Caco2 cells using Calcein-AM at 50 uM preincubated for 30 mins by fluorescence based PDSP assay relative to control; type: cell-based; settings: Caco-2 cells expressing MDR-1, probe Calcein-AM
Chain of MDR-1 (P-glycoprotein, ABCB1) (P08183 whole entry): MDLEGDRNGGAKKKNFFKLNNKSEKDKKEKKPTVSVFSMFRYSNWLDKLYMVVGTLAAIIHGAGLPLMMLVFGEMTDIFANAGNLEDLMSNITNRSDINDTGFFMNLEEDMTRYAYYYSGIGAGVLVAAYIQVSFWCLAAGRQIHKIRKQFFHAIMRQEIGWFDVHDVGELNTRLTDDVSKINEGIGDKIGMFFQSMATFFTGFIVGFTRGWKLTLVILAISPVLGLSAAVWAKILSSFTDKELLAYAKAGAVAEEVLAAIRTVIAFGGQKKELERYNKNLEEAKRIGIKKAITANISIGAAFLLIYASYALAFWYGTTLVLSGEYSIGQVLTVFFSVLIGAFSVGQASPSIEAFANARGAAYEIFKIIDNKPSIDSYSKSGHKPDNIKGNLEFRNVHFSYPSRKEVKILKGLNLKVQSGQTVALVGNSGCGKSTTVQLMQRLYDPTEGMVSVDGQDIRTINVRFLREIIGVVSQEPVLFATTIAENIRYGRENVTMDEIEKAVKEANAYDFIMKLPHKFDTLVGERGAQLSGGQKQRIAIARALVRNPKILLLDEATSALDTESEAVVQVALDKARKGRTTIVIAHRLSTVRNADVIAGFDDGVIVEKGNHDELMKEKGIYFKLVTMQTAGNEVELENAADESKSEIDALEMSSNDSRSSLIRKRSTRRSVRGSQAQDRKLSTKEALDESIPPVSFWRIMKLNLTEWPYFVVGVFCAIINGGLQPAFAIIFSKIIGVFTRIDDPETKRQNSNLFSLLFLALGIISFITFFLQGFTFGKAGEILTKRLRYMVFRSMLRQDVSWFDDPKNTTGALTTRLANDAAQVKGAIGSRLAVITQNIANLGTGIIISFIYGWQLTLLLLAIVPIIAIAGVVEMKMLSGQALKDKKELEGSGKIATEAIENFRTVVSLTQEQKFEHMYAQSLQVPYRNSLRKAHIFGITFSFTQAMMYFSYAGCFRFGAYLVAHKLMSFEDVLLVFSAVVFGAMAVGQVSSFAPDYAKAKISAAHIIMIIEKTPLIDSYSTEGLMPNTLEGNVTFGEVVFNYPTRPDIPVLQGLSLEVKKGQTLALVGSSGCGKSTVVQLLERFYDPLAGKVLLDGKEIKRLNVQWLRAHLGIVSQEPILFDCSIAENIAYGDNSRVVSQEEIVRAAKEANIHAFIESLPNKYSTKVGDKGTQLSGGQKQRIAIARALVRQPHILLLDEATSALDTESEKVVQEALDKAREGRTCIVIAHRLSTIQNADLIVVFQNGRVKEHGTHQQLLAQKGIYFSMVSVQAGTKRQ

[3] = Drug uptake in human SH-SY5Y cells at 10 uM after 90 mins by confocal fluorescence microscopy analysis; type: ADME, cell-based; settings: 1.5 h

| Structure (SMILES) | Drug uptake [1] | inhibition at 30 min, 50 µM [2] [%] | Drug uptake [3] |
| --- | --- | --- | --- |
| CCOC(=O)C1=C(C)NC(C)=C(C(=O)NCCCCCCNS(=O)(=O)c2ccc(-c3c4ccc(N(CC)CC)cc4[o+]c4cc(N(CC)CC)ccc34)c(S(=O)(=O)[O-])c2)C1c1c(-c2ccccc2)noc1C (stereo not drawn) | Active | – | – |
| CCOC(=O)C1=C(C)NC(C)=C(C(=O)NCCCCCCCCNS(=O)(=O)c2cccc3c(N(C)C)cccc23)C1c1c(-c2ccccc2)noc1C (stereo not drawn) | – | 63 | Active |
